Assay results published in the NIST ThermoML archive (doi:10.1016/j.fluid.2011.01.018).

What was measured:
[1] = xn = mol fraction of the nth substance listed; details: 101 kPa, Liquid, Vibrating tube method
[2] = 101 kPa, Liquid, Vibrating tube method

c1ccccc1 [benzene] + CC(C)CC(C)(C)C
[1], x1 = 1
Details	mass density [kg/m3]
293 K	878.98
303 K	868.3
313 K	857.57
323 K	846.76

c1ccccc1 [benzene] + C1CCCCC1
[1], x1 = 1
Details	mass density [kg/m3]
293 K	878.98
303 K	868.3
313 K	857.57
323 K	846.76

C1CCCCC1 [cyclohexane]
[2]
Details	mass density [kg/m3]
293 K	778.54
303 K	769.13
313 K	759.6
323 K	749.94

C1CCCCC1 [cyclohexane] + c1ccccc1
mass density [kg/m3], [1]
Details	293 K	303 K	313 K	323 K
x2 = 0	778.54	769.13	759.6	749.94
x2 = 0.1	784.99	775.47	765.87	756.14
x2 = 0.1805	790.71	781.14	771.46	761.67
x2 = 0.2347	794.92	785.3	775.57	765.73
x2 = 0.3029	800.47	790.79	781	771.1
x2 = 0.3801	807.1	797.33	787.47	777.5
x2 = 0.4453	813.09	803.25	793.32	783.27
x2 = 0.5223	820.56	810.63	800.62	790.48
x2 = 0.5814	826.62	816.62	806.53	796.34
x2 = 0.6563	834.72	824.62	814.44	804.14
x2 = 0.7135	841.21	831.03	820.77	810.41
x2 = 0.7654	847.44	837.18	826.83	816.41
x2 = 0.8191	854.16	843.82	833.39	822.89
x2 = 0.8771	861.75	851.31	840.79	830.19
x2 = 0.9161	867.03	856.52	845.95	835.28

CC(C)CC(C)(C)C [2,2,4-trimethylpentane] + c1ccccc1
mass density [kg/m3], [1]
Details	x2 = 0	x2 = 0.1248	x2 = 0.1642	x2 = 0.3682	x2 = 0.4538	x2 = 0.502	x2 = 0.5388	x2 = 0.6023	x2 = 0.6896	x2 = 0.9443
293 K	691.88	704.06	708.26	733.74	746.53	754.34	760.7	772.44	790.37	859.13
303 K	683.64	695.66	699.8	724.94	737.57	745.27	751.54	763.15	780.86	848.73
313 K	675.3	687.16	691.24	716.05	728.51	736.12	742.33	753.77	771.25	838.26
323 K	666.84	678.53	682.55	707.04	719.33	726.85	732.96	744.28	761.54	827.7

CC(C)CC(C)(C)C [2,2,4-trimethylpentane]
[2]
Details	mass density [kg/m3]
293 K	691.88
303 K	683.64
313 K	675.3
323 K	666.84

c1ccccc1 [benzene]
[2]
Details	mass density [kg/m3]
293 K	878.98
303 K	868.3
313 K	857.57
323 K	846.76
